# Source: patent US9187435B2, “Bridged Spiro[2.4]heptane ester derivatives” (Actelion Pharmaceuticals Ltd., priority 2010, dated 2015)
# Structures can show the parent of a compound that is named as a salt.
# Molecular target: T1, human ALX receptor (Homo sapiens, UniProt P25090)
# T1 construct: expressed in transfected cells; host or cells: HEK293 (HEK293-hALXR-Gα16)
# T1 sequence (P25090 1-351): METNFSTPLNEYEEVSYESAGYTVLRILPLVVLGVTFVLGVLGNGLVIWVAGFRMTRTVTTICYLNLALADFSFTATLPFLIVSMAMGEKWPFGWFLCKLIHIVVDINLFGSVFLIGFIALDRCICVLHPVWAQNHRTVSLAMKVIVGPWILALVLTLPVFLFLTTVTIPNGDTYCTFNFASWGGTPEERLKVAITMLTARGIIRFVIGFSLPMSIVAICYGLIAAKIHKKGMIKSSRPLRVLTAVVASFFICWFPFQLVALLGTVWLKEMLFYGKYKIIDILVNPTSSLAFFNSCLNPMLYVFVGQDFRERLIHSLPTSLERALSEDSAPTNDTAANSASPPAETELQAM
# Assay: Intracellular calcium measurements (FLIPR) in HEK293-hALXR-Gα16 cells, agonistic activity
# Assay type: cell-based
# Settings: values normalized to WKYMVm 10 nM
# Method: The ALX receptor and FPRL2 agonistic activities of the compounds of formula (I) are determined in accordance with the following experimental method.
# Intracellular Calcium Measurements:
# Cells expressing recombinant human ALX receptor and the G-protein Gα16 (HEK293-hALXR-Gα16) were grown to 80% confluency in Growing Medium (GM). Cells were detached from culture dishes with a cell dissociation buffer (Invitrogen, 13151-014), and collected by centrifugation at 1,000 rpm at rt for 5 min in Assay Buffer (AB) (equal parts of Hank's BSS (Gibco, 14065-049) and DMEM without Phenol Red (Gibco, 11880-028)). After 60 min incubation at 37° C. under 5% CO2 in AB supplemented with 1 μM Fluo-4 (AM) (Invitrogen, F14202), and 20 mM HEPES (Gibco, 15630-056), the cells were washed and resuspended in AB. They were then seeded onto 384-well FLIPR assay plates (Greiner, 781091) at 50,000 cells in 70 μl per well and sedimented by centrifugation at 1,000 rpm for 1 min. Stock solutions of test compounds were made up at a concentration of 10 mM in DMSO, and serially diluted in AB to concentrations required for activation dose response curves. WKYMVm (Phoenix Peptides) was used as a reference agonist. FLIPR384 or FLIPR Tetra instruments (Molecular Devices) were operated according to the manufacturer's standard instructions, adding 4 μl of test compound dissolved at 10 mM in DMSO and diluted prior to the experiment in assay buffer to obtain the desired final concentration. Changes in fluorescence were monitored before and after the addition of test compounds at lex=488 nm and lem=540 nm. Emission peak values above base level after compounds addition were exported after base line subtraction. Values were normalized to high-level control (WKYMVm compound, 10 nM final concentration) after subtraction of the base line value (AB addition).
row,SMILES,EC50
1,"O=C(OC[C@H]1CCNC[C@H]1F)[C@H]1[C@H](C(=O)Nc2ccc(Br)nc2)[C@@H]2CC[C@H]1C21CC1 (relative stereo) [Example 64, (1S,2R,3R,4R)-[(cis-3-Fluoro-piperidin-4-yl)methyl 2-((6-bromopyridin-3-yl)carbamoyl)spiro[bicyclo[2.2.1]heptane-7,1′-cyclopropane]-3-carboxylate]]",106 nM
2,"CN1CCCCC1COC(=O)[C@H]1[C@H](C(=O)Nc2ccc(Br)nc2)[C@@H]2CC[C@H]1C21CC1 (stereo partly drawn) [Example 22, (1S,2R,3R,4R)-[1-Methyl-piperidin-2-ylmethyl 2-((6-bromopyridin-3-yl)carbamoyl)spiro[bicyclo[2.2.1]heptane-7,1′-cyclopropane]-3-carboxylate]]",217 nM
3,"O=C(OCCOCCN1CCCC1)[C@H]1[C@H](C(=O)NCc2ccc(Br)cc2F)[C@@H]2CC[C@H]1C21CC1 [Example 32, (1S,2R,3R,4R)-[2-(2-(Pyrrolidin-1-yl)ethoxy)ethyl 2-((4-bromo-2-fluorobenzyl)carbamoyl)spiro[bicyclo[2.2.1]heptane-7,1′-cyclopropane]-3-carboxylate]]",226 nM
4,"O=C(OCCCC(=O)N1CCCC1)[C@H]1[C@H](C(=O)Nc2ccc(Br)nc2)[C@@H]2CC[C@H]1C21CC1 [Example 67, (1S,2R,3R,4R)-[(4-Pyrrolidino-4-oxobutyl) 2-((6-bromopyridin-3-yl)carbamoyl)spiro[bicyclo[2.2.1]heptane-7,1′-cyclopropane]-3-carboxylate]]",125 nM
5,"Cc1cc(CNC(=O)[C@H]2[C@H](C(=O)OCC[C@@H]3CCCCN3)[C@H]3CC[C@@H]2C32CC2)no1 [Example 20, (1S,2R,3R,4R)-[(S)-2-(Piperidin-2-yl)ethyl 2-(((5-methylisoxazol-3-yl)methyl)carbamoyl)spiro[bicyclo[2.2.1]heptane-7,1′-cyclopropane]-3-carboxylate]hydrochloride]",118 nM
6,"O=C(OCC(O)CO)[C@H]1[C@H](C(=O)Nc2ccc(Br)nc2)[C@@H]2CC[C@H]1C21CC1 (relative stereo) [Example 5, (1S,2R,3R,4R)-[(S*)-2,3-Dihydroxypropyl 2-((6-bromopyridin-3-yl)carbamoyl)spiro[bicyclo[2.2.1]heptane-7,1′-cyclopropane]-3-carboxylate]]",242 nM
7,"COCCOC(=O)[C@H]1[C@H](C(=O)Nc2ccc(Br)nc2)[C@@H]2CC[C@H]1C21CC1 [Example 7, (1S,2R,3R,4R)-[2-Methoxyethyl 2-((6-bromopyridin-3-yl)carbamoyl)spiro[bicyclo[2.2.1]heptane-7,1′-cyclopropane]-3-carboxylate]]",303 nM
8,"O=C(OCC1CCNCC1)[C@H]1[C@H](C(=O)NCc2ccc(Br)cc2F)[C@@H]2CC[C@H]1C21CC1 [Example 4, (1S,2R,3R,4R)-[Piperidin-4-ylmethyl 2-((4-bromo-2-fluorobenzyl)carbamoyl)spiro[bicyclo[2.2.1]heptane-7,1′-cyclopropane]-3-carboxylate]hydrochloride]",52.1 nM
9,"Cc1cc(CNC(=O)[C@H]2[C@H](C(=O)OCCC3(F)CCNCC3)[C@H]3CC[C@@H]2C32CC2)no1 [Example 58, (1S,2R,3R,4R)-[2-(4-Fluoro-piperidin-4-yl)ethyl 2-(((5-methylisoxazol-3-yl)methyl)carbamoyl)spiro[bicyclo[2.2.1]heptane-7,1′-cyclopropane]-3-carboxylate]]",36.7 nM
10,"CC(CC(F)(F)CN1CCCC1)OC(=O)[C@H]1[C@H](C(=O)Nc2ccc(Br)nc2)[C@@H]2CC[C@H]1C21CC1 (stereo partly drawn) [Example 77, (1S,2R,3R,4R)-[(4,4-Difluoro-5-(pyrrolidin-1-yl))pent-2-yl 2-((6-bromopyridin-3-yl)carbamoyl)spiro[bicyclo[2.2.1]heptane-7,1′-cyclopropane]-3-carboxylate]]",1750 nM

# These reach a lower EC50. Values come first.
row,EC50,SMILES
1,25.8 nM,"CN1CCC(OC(=O)[C@H]2[C@H](C(=O)Nc3ccc(Br)nc3)[C@@H]3CC[C@H]2C32CC2)C1 (stereo partly drawn) [Example 14, (1S,2R,3R,4R)-[1-Methylpyrrolidin-3-yl 2-((6-bromopyridin-3-yl)carbamoyl)spiro[bicyclo[2.2.1]heptane-7,1′-cyclopropane]-3-carboxylate]]"
2,11.9 nM,"O=C(OCCCCN1CC[C@H](F)C1)[C@H]1[C@H](C(=O)Nc2ccc(Br)nc2)[C@@H]2CC[C@H]1C21CC1 [Example 53, (1S,2R,3R,4R)-[(S)-4-(3-Fluoropyrrolidin-1-yl)butyl 2-((6-bromopyridin-3-yl)carbamoyl)spiro[bicyclo[2.2.1]heptane-7,1′-cyclopropane]-3-carboxylate]]"
3,30.7 nM,"Cc1cc(CNC(=O)[C@H]2[C@H](C(=O)OCCOCCN3CCCC3)[C@H]3CC[C@@H]2C32CC2)no1 [Example 33, (1S,2R,3R,4R)-[2-(2-(Pyrrolidin-1-yl)ethoxy)ethyl 2-(((5-methylisoxazol-3-yl)methyl)carbamoyl)spiro[bicyclo[2.2.1]heptane-7,1′-cyclopropane]-3-carboxylate]]"
4,3.1 nM,"O=C(OCCC1CCCNC1)[C@H]1[C@H](C(=O)Nc2ccc(Br)nc2)[C@@H]2CC[C@H]1C21CC1 (stereo partly drawn) [Example 10, (1S,2R,3R,4R)-[2-(Piperidin-3-yl)ethyl 2-((6-bromopyridin-3-yl)carbamoyl)spiro[bicyclo[2.2.1]heptane-7,1′-cyclopropane]-3-carboxylate]hydrochloride]"
5,1.8 nM,"O=C(OCC[C@H]1CCNC[C@H]1F)[C@H]1[C@H](C(=O)Nc2ccc(Br)nc2)[C@@H]2CC[C@H]1C21CC1 (relative stereo) [Example 38, (1S,2R,3R,4R)-[2-(cis-3-Fluoro-piperidin-4-yl)ethyl 2-((6-bromopyridin-3-yl)carbamoyl)spiro[bicyclo[2.2.1]heptane-7,1′-cyclopropane]-3-carboxylate]]"
6,21.6 nM,"Cc1cc(CNC(=O)[C@H]2[C@H](C(=O)OCCOCCN3CC[C@H](F)C3)[C@H]3CC[C@@H]2C32CC2)no1 [Example 34, (1S,2R,3R,4R)-[(S)-2-(2-(3-Fluoropyrrolidin-1-yl)ethoxy)ethyl 2-(((5-methylisoxazol-3-yl)methyl)carbamoyl)spiro[bicyclo[2.2.1]heptane-7,1′-cyclopropane]-3-carboxylate]]"
7,14.6 nM,"O=C(OCCCCN1CCCC1)[C@H]1[C@H](C(=O)Nc2ccc(Br)nc2)[C@@H]2CC[C@H]1C21CC1 [Example 54, (1S,2R,3R,4R)-[4-(Pyrrolidin-1-yl)butyl 2-((6-bromopyridin-3-yl)carbamoyl)spiro[bicyclo[2.2.1]heptane-7,1′-cyclopropane]-3-carboxylate]]"
8,22.7 nM,"Cc1cc(CNC(=O)[C@H]2[C@H](C(=O)OCC3CCNCC3)[C@H]3CC[C@@H]2C32CC2)no1 [Example 3, (1S,2R,3R,4R)-[Piperidin-4-ylmethyl 2-(((5-methylisoxazol-3-yl)methyl)carbamoyl)spiro[bicyclo[2.2.1]heptane-7,1′-cyclopropane]-3-carboxylate]hydrochloride]"
9,34.6 nM,"Cc1cc(CNC(=O)[C@H]2[C@H](C(=O)OC3CCN(C)C3)[C@H]3CC[C@@H]2C32CC2)no1 (stereo partly drawn) [Example 15, (1S,2R,3R,4R)-[1-Methylpyrrolidin-3-yl 2-(((5-methylisoxazol-3-yl)methyl)carbamoyl)spiro[bicyclo[2.2.1]heptane-7,1′-cyclopropane]-3-carboxylate]]"
10,10.8 nM,"O=C(OCC1CCNCC1)[C@H]1[C@H](C(=O)Nc2ccc(Br)cc2)[C@@H]2CC[C@H]1C21CC1 [Example 50, (1S,2R,3R,4R)-[(Piperidin-4-yl)methyl 2-((4-bromophenyl)carbamoyl)spiro[bicyclo[2.2.1]heptane-7,1′-cyclopropane]-3-carboxylate]hydrochloride]"
11,11.3 nM,"Cc1cc(CNC(=O)[C@H]2[C@H](C(=O)OCC3(F)CCNCC3)[C@H]3CC[C@@H]2C32CC2)on1 [Example 51, (1S,2R,3R,4R)-[(4-Fluoro-piperidin-4-yl)methyl 2-(((3-methylisoxazol-5-yl)methyl)carbamoyl)spiro[bicyclo[2.2.1]heptane-7,1′-cyclopropane]-3-carboxylate]]"
12,3.7 nM,"Cc1cc(CNC(=O)[C@H]2[C@H](C(=O)OCC[C@H]3CCNC[C@H]3F)[C@H]3CC[C@@H]2C32CC2)on1 (relative stereo) [Example 39, (1S,2R,3R,4R)-[2-(cis-3-Fluoro-piperidin-4-yl)ethyl 2-(((3-methylisoxazol-5-yl)methyl)carbamoyl)spiro[bicyclo[2.2.1]heptane-7,1′-cyclopropane]-3-carboxylate]]"
